# Article PMC10178848, “Modulating fast skeletal muscle contraction protects skeletal muscle in animal models of Duchenne muscular dystrophy” (The Journal of Clinical Investigation, 2023)
# Test system: mdx mouse EDL muscle
# Test: Phosphoprotein array analysis (Cell Signaling Phospho Antibody Array)
# Details: phospho/total, T vs C
# Method: mdx mouse EDL muscle was prepared for ex vivo analysis as described (n = 5). Muscles were incubated for 1 hour with DMSO or EDG-5506 (5 μM) and then flash frozen in liquid nitrogen. Tissue preparation and analysis were performed as recommended by the manufacturer (Cell Signaling Phospho Antibody Array, Full Moon Biosystems).
smiles,measurement,value
O=c1ccc(-c2cnc(OCC(F)(F)F)nc2)nn1Cc1cncc(F)c1 [EDG-5506],Ratio (T/C): Integrin beta-3 (Phospho-Tyr773) to total Integrin beta-3 (Ab-773),0.8566
same,Ratio (T/C): Interferon-gamma receptor alpha (Phospho-Tyr457) to total Interferon-alpha/beta receptor alpha chain (Ab-466),0.992
same,Ratio (T/C): JAK2 (Phospho-Tyr221) to total JAK2 (Ab-1007),0.5849
same,Ratio (T/C): JunB (Phospho-Ser259) to total JunB (Ab-259),0.7783
same,Ratio (T/C): LKB1 (Phospho-Thr189) to total LKB1 (Ab-334),1.099
same,Ratio (T/C): LYN (Phospho-Tyr507) to total LYN (Ab-507),1.819
same,Ratio (T/C): Lamin A/C (Phospho-Ser392) to total Lamin A/C (Ab-392),0.4365
same,Ratio (T/C): MDM2 (Phospho-Ser166) to total MDM2 (Ab-166),0.7195
same,Ratio (T/C): MEK1 (Phospho-Ser217) to total MEK1 (Ab-291),0.8093
same,Ratio (T/C): MEK1 (Phospho-Ser221) to total MEK1 (Ab-291),1.481
same,Ratio (T/C): MITF (Phospho-Ser73) to total MITF (Ab-73),0.8065
same,Ratio (T/C): MSK1 (Phospho-Ser376) to total MSK1 (Ab-360),1.21
same,Ratio (T/C): Myc (Phospho-Ser62) to total Myc (Ab-58),0.9423
same,Ratio (T/C): NFkB-p65 (Phospho-Ser311) to total NFkB-p65 (Ab-529),0.8783
same,Ratio (T/C): NFkB-p65 (Phospho-Ser529) to total NFkB-p65 (Ab-529),0.8263
same,Ratio (T/C): NFkB-p100/p52 (Phospho-Ser865) to total NFkB-p100/p52 (Ab-865),1.159
same,Ratio (T/C): NFkB-p105/p50 (Phospho-Ser337) to total NFkB-p105/p50 (Ab-927),1.219
same,Ratio (T/C): P38 MAPK (Phospho-Thr180/Tyr182) to total P38 MAPK (Ab-182),0.2071
same,Ratio (T/C): P70S6K (Phospho-Ser424) to total P70S6K (Ab-229),0.7495
same,Ratio (T/C): P70S6K (Phospho-Thr421) to total P70S6K (Ab-229),1.055
same,Ratio (T/C): P73 (Phospho-Tyr99) to total P73 (Ab-99),1.0107
same,Ratio (T/C): P90RSK (Phospho-Thr359/Ser363) to total P90RSK (Ab-359/363),0.8912
same,Ratio (T/C): PDK1 (Phospho-Ser241) to total PDK1 (Ab-241),0.9138
same,Ratio (T/C): PLCG1 (Phospho-Tyr783) to total PLCG1 (Ab-783),1.902
same,Ratio (T/C): PLK1 (Phospho-Thr210) to total PLK1 (Ab-210),0.3997
same,Ratio (T/C): PP1 alpha (Phospho-Thr320) to total PP1 alpha (Ab-320),0.867
same,Ratio (T/C): PP2A-alpha (Phospho-Tyr307) to total PP2A-alpha (Ab-307),0.7589
same,Ratio (T/C): PPAR-gamma (Phospho-Ser112) to total PPAR-gamma (Ab-112),0.8451
same,Ratio (T/C): PTEN (Phospho-Ser380/Thr382/Thr383) to total PTEN (Ab-380),0.6925
same,Ratio (T/C): RSK1/2/3/4 (Phospho-Ser221/227/218/232) to total RSK1/2/3/4 (Ab-221/227/218/232),1.05
same,Ratio (T/C): Raf1 (Phospho-Ser259) to total Raf1 (Ab-43),0.9472
same,Ratio (T/C): Rb (Phospho-Ser608) to total Rb (Ab-807),0.5194
same,Ratio (T/C): Rb (Phospho-Ser807) to total Rb (Ab-807),0.4329
same,Ratio (T/C): RelB (Phospho-Ser552) to total RelB (Ab-552),0.7768
same,Ratio (T/C): SHP-2 (Phospho-Tyr542) to total SHP-2 (Ab-542),0.9242
same,Ratio (T/C): SRF (Phospho-Ser99) to total SRF (Ab-99),0.6381
same,Ratio (T/C): STAT2 (Phospho-Tyr690) to total STAT2 (Ab-690),1.1086
same,Ratio (T/C): STAT3 (Phospho-Tyr705) to total STAT3 (Ab-705),0.8721
same,Ratio (T/C): STAT5B (Phospho-Ser731) to total STAT5B (Ab-731),1.008
same,Ratio (T/C): STAT6 (Phospho-Thr645) to total STAT6 (Ab-645),0.7953
same,Ratio (T/C): SYK (Phospho-Tyr348) to total SYK (Ab-525),0.9191
same,Ratio (T/C): Shc (Phospho-Tyr349) to total Shc (Ab-349),1.943
same,Ratio (T/C): Smad1 (Phospho-Ser187) to total Smad1 (Ab-465),1.9576
same,Ratio (T/C): Smad2 (Phospho-Ser467) to total Smad2 (Ab-255),0.3873
same,Ratio (T/C): Smad2/3 (Phospho-Thr8) to total Smad2 (Ab-255),0.779
same,Ratio (T/C): Smad3 (Phospho-Ser213) to total Smad3 (Ab-425),2.4313
same,Ratio (T/C): Src (Phospho-Tyr418) to total Src (Ab-418),0.4536
same,Ratio (T/C): Synuclein alpha (Phospho-Tyr136) to total Synuclein alpha (Ab-125),1.009
same,Ratio (T/C): Tau (Phospho-Ser235) to total Tau (Ab-235),0.4913
same,Ratio (T/C): Tau (Phospho-Ser396) to total Tau (Ab-235),0.4515
same,Ratio (T/C): Trk B (Phospho-Tyr515) to total Trk B (Ab-515),0.8791
same,Ratio (T/C): VEGFR2 (Phospho-Tyr1175) to total VEGFR2 (Ab-1214),0.7882
same,Ratio (T/C): VEGFR2 (Phospho-Tyr1214) to total VEGFR2 (Ab-1214),1.1348
same,Ratio (T/C): Zap-70 (Phospho-Tyr319) to total Zap-70 (Ab-319),0.9346
same,Ratio (T/C): c-Jun (Phospho-Ser73) to total c-Jun (Ab-243),0.8772
same,Ratio (T/C): eEF2K (Phospho-Ser366) to total eEF2K (Ab-366),0.5517
same,Ratio (T/C): eIF2A (Phospho-Ser51) to total eIF2A (Ab-51),1.082
same,Ratio (T/C): eNOS (Phospho-Ser615) to total eNOS (Ab-1179),1.215
same,Ratio (T/C): mTOR (Phospho-Ser2481) to total mTOR (Ab-2481),1.125
same,Ratio (T/C): p44/42 MAP Kinase (Phospho-Tyr204) to total p44/42 MAP Kinase (Ab-202),0.9379
same,Ratio (T/C): p53 (Phospho-Ser9) to total p53 (Ab-315),0.8012
same,Ratio (T/C): p53 (Phospho-Ser15) to total p53 (Ab-315),0.1195
same,Ratio (T/C): p53 (Phospho-Ser315) to total p53 (Ab-315),0.641
